The text below walks through data of ChEMBL document CHEMBL1201862, “PubChem BioAssay data set” (2004).

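A five-concentration, 48-hour dose response in 96-well plates underlies each endpoint, interpolated linearly between surrounding concentrations. GI50 marks 50% less growth.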 Active and inactive are the calls of the source. Cut-off read from the data, not from the text of the source: active = GI50 up to about 1.1 µM and inactive = higher. Some results are limits rather than exact numbers.

Among the test systems are UACC-62; PC-3; SW-620; Malme-3M; SK-MEL-28; SR; UACC-257; RPMI-8226; SNB-19; MDA-MB-231; KM12; TK-10; SF-539; OVCAR-5; NCI-H522; SK-MEL-2; ACHN; COLO 205; MDA-MB-435; SF-268.
What all share (assay): NCI anticancer screen, dose series, 48 h

`CC(C)c1ccccc1[S+]([O-])c1ccccc1C(C)(C)O` (stereo not drawn): the GI50 in the test on UACC-62, in the test with PC-3, with SW-620, with Malme-3M, with SK-MEL-28 and in the test with SR was > 100 µM (inactive) each time. The GI50 in the test on UACC-257 is > 100 µM (inactive); in the test with RPMI-8226, 42.6 µM (inactive); with SNB-19, 37.3 µM (inactive); in the test with MDA-MB-231, 88.9 µM (inactive); in the test on KM12, 30.8 µM (inactive); in the test with TK-10, > 100 µM (inactive). In addition, the GI50 in the test with SF-539 is > 100 µM (inactive); in the test on OVCAR-5, 56.2 µM (inactive); in the test on NCI-H522, 96.8 µM (inactive); in the test on SK-MEL-2, 67.6 µM (inactive); in the test on ACHN, > 100 µM (inactive); in the test with COLO 205 it was > 100 µM (inactive). Besides, the figures for the GI50 in the test with MDA-MB-435 and in the test on SF-268 were 39.6 µM (inactive) and > 100 µM (inactive), respectively.

For the molecule `O=C(O)c1cccc(NC(C(=O)c2ccccc2)c2ccccc2)c1` (stereo not drawn), the GI50 in the test on UACC-62, in the test on PC-3, in the test on SW-620, in the test on Malme-3M, in the test with SK-MEL-28 and with SR was > 100 µM (inactive) in each case. The GI50 in the test with RPMI-8226, in the test on SNB-19, in the test on MDA-MB-231, in the test with KM12, in the test with TK-10 and in the test with SF-539 was > 100 µM (inactive) in each case. In addition, the GI50 with OVCAR-5 was > 100 µM (inactive); in the test with NCI-H522 it was 78.9 µM (inactive); with SK-MEL-2, > 100 µM (inactive); in the test with ACHN, > 100 µM (inactive); in the test with COLO 205, > 100 µM (inactive); in the test with MDA-MB-435, > 100 µM (inactive). Besides, the GI50 with SF-268 is > 100 µM (inactive).

`N#CCCN(C(=O)Nc1ccccc1)[C@H]1CCCC[C@@H]1N(C(=O)Nc1ccccc1)c1ccccc1`: the GI50 was > 100 µM (inactive) in the test with UACC-62; 48.1 µM (inactive) in the test on PC-3; 72.6 µM (inactive) in the test on SW-620; > 100 µM (inactive) in the test with Malme-3M; > 100 µM (inactive) in the test with SK-MEL-28; 19.3 µM (inactive) in the test on SR. Further, the GI50 in the test on UACC-257 was > 100 µM (inactive); in the test on RPMI-8226, 36.7 µM (inactive); in the test on SNB-19, 22.2 µM (inactive); in the test on MDA-MB-231 it was > 100 µM (inactive); in the test on KM12 it was 32.8 µM (inactive); in the test on TK-10, > 100 µM (inactive). The GI50 was > 100 µM (inactive) in the test on SF-539; > 100 µM (inactive) in the test on OVCAR-5; 71.1 µM (inactive) in the test on NCI-H522; > 100 µM (inactive) with SK-MEL-2; > 100 µM (inactive) in the test on ACHN; 83 µM (inactive) with COLO 205. Besides, in the test on MDA-MB-435, the GI50 is > 100 µM (inactive).

For `CC1(C#N)CC(C)(C)C(/C=C2/CC(C)(C)C(/C=C3/OC(=N)CC3(C)C)=N2)=N1` (stereo not drawn), the GI50 is 20.7 µM (inactive) in the test with UACC-62; 30.6 µM (inactive) in the test with PC-3; 34.4 µM (inactive) in the test on SW-620; 0.564 µM (active) in the test on Malme-3M; 51.9 µM (inactive) with SK-MEL-28; 28.5 µM (inactive) with SR. In addition, the GI50 with UACC-257 was 18.8 µM (inactive); in the test on RPMI-8226 it was 20 µM (inactive); with SNB-19, 32.7 µM (inactive); in the test on MDA-MB-231 it was 33.6 µM (inactive); with KM12, 24.2 µM (inactive); with TK-10, 31 µM (inactive). Moreover, the GI50 in the test with SF-539 was 62.2 µM (inactive); in the test on OVCAR-5 it was 80.4 µM (inactive); in the test with NCI-H522, 14.2 µM (inactive); in the test with SK-MEL-2, 38.7 µM (inactive); with ACHN it was 21.3 µM (inactive); in the test with COLO 205 it was 16.9 µM (inactive). The GI50 is 21.7 µM (inactive) in the test on MDA-MB-435 and 24.3 µM (inactive) with SF-268.

As for `CCN1CN(c2ccccc2)C2(CCN(CC(CC3OCCO3)c3ccc(F)cc3)CC2)C1=O` (stereo not drawn), the GI50 was 18.1 µM (inactive) in the test with UACC-62; 22.6 µM (inactive) in the test with PC-3; 6.35 µM (inactive) with SW-620; 19.7 µM (inactive) with Malme-3M; 19.9 µM (inactive) with SK-MEL-28; 33 µM (inactive) in the test on SR. The GI50 in the test on UACC-257 was 2.79 µM (inactive); with RPMI-8226, 10.4 µM (inactive); in the test on SNB-19 it was 20.6 µM (inactive); with MDA-MB-231, 16.1 µM (inactive); in the test on KM12, 10.7 µM (inactive); with TK-10 it was 7.53 µM (inactive). The GI50 is 9.53 µM (inactive) with SF-539; 6.5 µM (inactive) in the test with OVCAR-5; 12.6 µM (inactive) in the test with NCI-H522; 20.1 µM (inactive) in the test on SK-MEL-2; 3.73 µM (inactive) in the test on ACHN; 0.703 µM (active) in the test with COLO 205. For the same molecule, the GI50 with MDA-MB-435 is 14.8 µM (inactive); in the test with SF-268, 5.19 µM (inactive).

With `CCOC(=O)C1=NN(c2ccc([N+](=O)[O-])cc2)[C@@]2(C)C[C@]3(c4ccccc4)N(c4ccc([N+](=O)[O-])cc4)N=C(C(=O)OCC)N3c3ccccc3N12`, the GI50 in the test with UACC-62, with PC-3, in the test with SW-620, in the test on Malme-3M, in the test with SK-MEL-28 and with SR was > 100 µM (inactive) each time. In addition, the GI50 is > 100 µM (inactive) in the test on UACC-257; > 100 µM (inactive) in the test on RPMI-8226; > 100 µM (inactive) in the test on SNB-19; 4.51 µM (inactive) with MDA-MB-231; > 100 µM (inactive) in the test with KM12; > 100 µM (inactive) in the test on TK-10. The GI50 with SF-539, in the test on OVCAR-5, in the test with NCI-H522, in the test with SK-MEL-2, with ACHN and in the test with COLO 205 was > 100 µM (inactive) throughout. Also, the GI50 in the test on MDA-MB-435 and with SF-268 was > 100 µM (inactive) throughout.

For the molecule `CC1=CCC(C)=Nc2nc3ccccc3n21`, the GI50 in the test with UACC-62, in the test on PC-3, in the test on SW-620, in the test on Malme-3M, in the test on SK-MEL-28 and in the test with SR was > 100 µM (inactive) each time. Further, the GI50 with UACC-257, in the test on RPMI-8226, with SNB-19, with MDA-MB-231, in the test on KM12 and in the test with TK-10 was > 100 µM (inactive) each time. The GI50 with SF-539, in the test with OVCAR-5, in the test with NCI-H522, in the test with SK-MEL-2, with ACHN and with COLO 205 was > 100 µM (inactive) in each case. Moreover, the GI50 in the test with MDA-MB-435 and in the test with SF-268 was > 100 µM (inactive) in each case.
